Measured values from ChEMBL document CHEMBL4507276 (2021).

What was measured:
[1] = molecular target: Ribosomal protein S6 kinase alpha-5 (Homo sapiens) (UniProt O75582); settings: Compound concentration 1000.0 nM
[2] = molecular target: 5-hydroxytryptamine receptor 2A (Homo sapiens) (UniProt P28223); assay: 5HT2AH_AGON Cerep selectivity data (BI); settings: filed as agonist, Compound concentration 20.0 uM
[3] = molecular target: Type-1 angiotensin II receptor (Homo sapiens) (UniProt P30556); assay: AT1/H Cerep selectivity data (BI); settings: filed as antagonist, Compound concentration 20.0 uM
[4] = molecular target: Melanocortin receptor 3 (Homo sapiens) (UniProt P41968); assay: MC3H_AGON Cerep selectivity data (BI); settings: filed as agonist, Compound concentration 20.0 uM
[5] = molecular target: Prostacyclin receptor (Homo sapiens) (UniProt P43119); assay: PGI2/H Cerep selectivity data (BI); settings: Compound concentration 20.0 uM
[6] = molecular target: Cysteinyl leukotriene receptor 1 (Homo sapiens) (UniProt Q9Y271); assay: CYSLT1_HS Eurofins-Panlabs selectivity data (BI); settings: Compound concentration 10.0 uM
[7] = molecular target: Estrogen receptor (Homo sapiens) (UniProt P03372); assay: ERALPHA/H Eurofins-Panlabs selectivity data (BI); settings: Compound concentration 10.0 uM
[8] = molecular target: T1, Muscarinic acetylcholine receptor M1 (Homo sapiens) (UniProt P11229); assay: M1/HU Eurofins-Panlabs selectivity data (BI); settings: Compound concentration 10.0 uM
T1 sequence (whole entry): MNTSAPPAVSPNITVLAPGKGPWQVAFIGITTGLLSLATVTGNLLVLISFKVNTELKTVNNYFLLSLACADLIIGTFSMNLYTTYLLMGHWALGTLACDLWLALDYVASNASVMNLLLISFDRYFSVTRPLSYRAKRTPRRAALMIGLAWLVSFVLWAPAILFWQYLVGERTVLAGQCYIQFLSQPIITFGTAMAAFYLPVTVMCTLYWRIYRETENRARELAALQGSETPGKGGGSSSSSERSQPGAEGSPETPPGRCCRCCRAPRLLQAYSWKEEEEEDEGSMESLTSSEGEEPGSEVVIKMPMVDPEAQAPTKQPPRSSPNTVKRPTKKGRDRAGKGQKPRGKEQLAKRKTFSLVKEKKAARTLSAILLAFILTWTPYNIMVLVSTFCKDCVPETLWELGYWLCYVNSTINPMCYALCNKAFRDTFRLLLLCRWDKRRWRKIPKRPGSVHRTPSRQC

[9] = molecular target: P2Y purinoceptor 1 (Rattus norvegicus) (UniProt P49651); assay: P2Y/RAT Eurofins-Panlabs selectivity data (BI); settings: Compound concentration 10.0 uM
[10] = molecular target: RAC-beta serine/threonine-protein kinase (Homo sapiens) (UniProt P31751); assay: AKT2 Invitrogen selectivity data (BI); settings: Compound concentration 3.0 uM
[11] = molecular target: T2, Cytoplasmic tyrosine-protein kinase BMX (Homo sapiens) (UniProt P51813); assay: BMX Invitrogen selectivity data (BI); settings: Compound concentration 3.0 uM
T2 sequence (whole entry): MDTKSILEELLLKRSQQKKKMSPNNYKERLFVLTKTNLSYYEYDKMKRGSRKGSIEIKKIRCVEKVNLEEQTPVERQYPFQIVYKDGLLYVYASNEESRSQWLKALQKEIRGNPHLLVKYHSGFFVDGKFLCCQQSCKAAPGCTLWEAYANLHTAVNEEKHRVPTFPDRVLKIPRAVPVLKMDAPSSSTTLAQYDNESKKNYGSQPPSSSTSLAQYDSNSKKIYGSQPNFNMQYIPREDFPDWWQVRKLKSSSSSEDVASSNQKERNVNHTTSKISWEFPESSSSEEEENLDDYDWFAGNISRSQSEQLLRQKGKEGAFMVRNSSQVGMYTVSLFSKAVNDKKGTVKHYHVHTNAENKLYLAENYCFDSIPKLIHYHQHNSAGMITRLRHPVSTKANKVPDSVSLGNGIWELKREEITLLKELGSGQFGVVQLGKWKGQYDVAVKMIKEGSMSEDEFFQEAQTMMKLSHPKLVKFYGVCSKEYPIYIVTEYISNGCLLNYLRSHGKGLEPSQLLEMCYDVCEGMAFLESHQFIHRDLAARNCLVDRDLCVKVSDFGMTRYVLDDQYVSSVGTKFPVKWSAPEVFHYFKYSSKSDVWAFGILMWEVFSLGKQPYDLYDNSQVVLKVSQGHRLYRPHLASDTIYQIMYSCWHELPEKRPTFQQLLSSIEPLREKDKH

[12] = molecular target: Fibroblast growth factor receptor 1 (Homo sapiens) (UniProt P11362); assay: FGFR1 Invitrogen selectivity data (BI); settings: Compound concentration 3.0 uM
[13] = molecular target: T3, Dual specificity mitogen-activated protein kinase kinase 6 (Homo sapiens) (UniProt P52564); assay: MAP2K6 Invitrogen selectivity data (BI); settings: Compound concentration 3.0 uM
T3 sequence (whole entry): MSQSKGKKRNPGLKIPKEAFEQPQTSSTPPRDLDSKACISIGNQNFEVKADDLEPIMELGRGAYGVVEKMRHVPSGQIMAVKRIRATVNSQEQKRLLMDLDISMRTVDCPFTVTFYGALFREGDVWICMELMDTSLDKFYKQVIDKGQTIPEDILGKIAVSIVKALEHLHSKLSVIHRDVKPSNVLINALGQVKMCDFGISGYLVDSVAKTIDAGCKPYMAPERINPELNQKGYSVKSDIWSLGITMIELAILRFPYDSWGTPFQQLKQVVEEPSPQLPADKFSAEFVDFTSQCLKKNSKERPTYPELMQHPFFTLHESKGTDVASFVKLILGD

[14] = molecular target: Mitogen-activated protein kinase kinase kinase 8 (Homo sapiens) (UniProt P41279); assay: MAP3K8 Invitrogen selectivity data (BI); settings: Compound concentration 3.0 uM
[15] = molecular target: T4, Serine/threonine-protein kinase NLK (Homo sapiens) (UniProt Q9UBE8); assay: NLK Invitrogen selectivity data (BI); settings: Compound concentration 3.0 uM
T4 sequence (whole entry): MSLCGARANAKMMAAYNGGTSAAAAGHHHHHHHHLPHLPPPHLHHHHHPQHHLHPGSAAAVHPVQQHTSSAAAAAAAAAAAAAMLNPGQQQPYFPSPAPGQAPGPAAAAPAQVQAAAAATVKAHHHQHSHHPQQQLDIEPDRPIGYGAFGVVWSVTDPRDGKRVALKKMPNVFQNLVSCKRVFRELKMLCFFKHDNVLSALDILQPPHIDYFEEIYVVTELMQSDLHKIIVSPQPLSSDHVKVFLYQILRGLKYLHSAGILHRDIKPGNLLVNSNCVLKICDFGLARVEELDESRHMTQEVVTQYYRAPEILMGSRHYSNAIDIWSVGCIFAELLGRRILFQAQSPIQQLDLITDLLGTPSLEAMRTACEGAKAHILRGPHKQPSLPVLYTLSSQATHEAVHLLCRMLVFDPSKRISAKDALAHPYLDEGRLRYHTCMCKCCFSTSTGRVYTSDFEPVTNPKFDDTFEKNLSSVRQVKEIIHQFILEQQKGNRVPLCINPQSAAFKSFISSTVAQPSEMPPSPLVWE

[16] = molecular target: PI3-kinase p110-alpha/p85-alpha (Homo sapiens) (UniProt P27986+P42336); assay: PIK3CAPIK3R1 Invitrogen selectivity data (BI); format: protein-complex assay; settings: Compound concentration 3.0 uM
[17] = molecular target: PI3-kinase p110-delta/p85-alpha (Homo sapiens) (UniProt P27986+O00329); assay: PIK3CDPIK3R1 Invitrogen selectivity data (BI); format: protein-complex assay; settings: Compound concentration 3.0 uM
[18] = molecular target: Serine/threonine-protein kinase SIK2 (Homo sapiens) (UniProt Q9H0K1); assay: SNF1LK2 Invitrogen selectivity data (BI); settings: Compound concentration 3.0 uM

Measured: residual activity

Cysteinyl leukotriene receptor 1 (Homo sapiens), sequence (Q9Y271 whole entry): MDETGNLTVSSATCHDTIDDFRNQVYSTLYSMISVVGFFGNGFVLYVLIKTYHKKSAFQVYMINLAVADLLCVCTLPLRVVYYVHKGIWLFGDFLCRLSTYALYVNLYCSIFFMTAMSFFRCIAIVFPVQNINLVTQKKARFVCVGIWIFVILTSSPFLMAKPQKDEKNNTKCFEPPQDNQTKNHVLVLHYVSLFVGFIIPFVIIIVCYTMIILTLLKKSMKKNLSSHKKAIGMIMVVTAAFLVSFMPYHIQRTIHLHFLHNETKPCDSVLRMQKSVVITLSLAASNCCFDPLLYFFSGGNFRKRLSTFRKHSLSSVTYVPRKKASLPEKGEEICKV
RAC-beta serine/threonine-protein kinase (Homo sapiens), sequence (P31751 whole entry): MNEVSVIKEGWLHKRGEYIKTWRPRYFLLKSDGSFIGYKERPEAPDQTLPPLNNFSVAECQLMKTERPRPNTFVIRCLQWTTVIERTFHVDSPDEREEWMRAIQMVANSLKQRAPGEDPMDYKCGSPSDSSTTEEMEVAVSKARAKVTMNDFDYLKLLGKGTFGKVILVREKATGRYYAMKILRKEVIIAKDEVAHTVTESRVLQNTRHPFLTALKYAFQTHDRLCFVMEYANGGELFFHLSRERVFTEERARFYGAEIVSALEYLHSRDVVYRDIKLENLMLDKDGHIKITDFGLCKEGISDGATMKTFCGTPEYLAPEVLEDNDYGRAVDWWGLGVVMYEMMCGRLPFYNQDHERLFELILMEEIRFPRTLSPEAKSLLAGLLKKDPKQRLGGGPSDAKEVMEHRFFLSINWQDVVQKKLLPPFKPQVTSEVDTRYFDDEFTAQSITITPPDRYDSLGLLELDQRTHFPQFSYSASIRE
Type-1 angiotensin II receptor (Homo sapiens), sequence (P30556 whole entry): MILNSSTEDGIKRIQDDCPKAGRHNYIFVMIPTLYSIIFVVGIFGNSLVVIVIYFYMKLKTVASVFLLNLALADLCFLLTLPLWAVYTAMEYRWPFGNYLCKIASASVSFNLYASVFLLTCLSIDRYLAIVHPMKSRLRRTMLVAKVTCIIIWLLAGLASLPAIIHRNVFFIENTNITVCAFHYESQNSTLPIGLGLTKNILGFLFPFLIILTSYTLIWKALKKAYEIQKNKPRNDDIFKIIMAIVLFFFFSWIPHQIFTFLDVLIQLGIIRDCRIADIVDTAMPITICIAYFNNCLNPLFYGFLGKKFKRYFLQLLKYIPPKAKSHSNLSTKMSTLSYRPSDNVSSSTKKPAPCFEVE
P2Y purinoceptor 1 (Rattus norvegicus), sequence (P49651 whole entry): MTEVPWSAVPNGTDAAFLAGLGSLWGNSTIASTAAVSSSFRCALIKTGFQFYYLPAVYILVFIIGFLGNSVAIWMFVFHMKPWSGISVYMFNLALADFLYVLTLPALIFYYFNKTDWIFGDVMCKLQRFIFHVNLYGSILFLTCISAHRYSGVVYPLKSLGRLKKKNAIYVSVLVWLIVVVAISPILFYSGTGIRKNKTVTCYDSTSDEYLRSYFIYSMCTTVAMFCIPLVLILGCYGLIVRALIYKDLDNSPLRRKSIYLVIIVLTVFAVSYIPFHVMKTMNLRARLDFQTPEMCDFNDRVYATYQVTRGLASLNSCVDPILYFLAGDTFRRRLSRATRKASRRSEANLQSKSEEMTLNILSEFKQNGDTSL
5-hydroxytryptamine receptor 2A (Homo sapiens), sequence (P28223 whole entry): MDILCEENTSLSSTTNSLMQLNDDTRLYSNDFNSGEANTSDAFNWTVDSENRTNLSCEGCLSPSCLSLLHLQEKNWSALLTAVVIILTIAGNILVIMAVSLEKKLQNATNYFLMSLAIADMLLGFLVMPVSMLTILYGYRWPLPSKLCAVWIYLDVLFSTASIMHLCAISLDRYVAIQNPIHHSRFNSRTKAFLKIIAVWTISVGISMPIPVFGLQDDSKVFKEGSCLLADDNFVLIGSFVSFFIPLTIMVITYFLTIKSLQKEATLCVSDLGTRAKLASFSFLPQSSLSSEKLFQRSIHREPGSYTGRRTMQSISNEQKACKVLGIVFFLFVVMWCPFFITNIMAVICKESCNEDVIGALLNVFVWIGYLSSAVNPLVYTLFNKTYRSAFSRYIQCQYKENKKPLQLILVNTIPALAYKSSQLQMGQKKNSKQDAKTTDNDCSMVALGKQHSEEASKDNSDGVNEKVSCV
Prostacyclin receptor (Homo sapiens), sequence (P43119 whole entry): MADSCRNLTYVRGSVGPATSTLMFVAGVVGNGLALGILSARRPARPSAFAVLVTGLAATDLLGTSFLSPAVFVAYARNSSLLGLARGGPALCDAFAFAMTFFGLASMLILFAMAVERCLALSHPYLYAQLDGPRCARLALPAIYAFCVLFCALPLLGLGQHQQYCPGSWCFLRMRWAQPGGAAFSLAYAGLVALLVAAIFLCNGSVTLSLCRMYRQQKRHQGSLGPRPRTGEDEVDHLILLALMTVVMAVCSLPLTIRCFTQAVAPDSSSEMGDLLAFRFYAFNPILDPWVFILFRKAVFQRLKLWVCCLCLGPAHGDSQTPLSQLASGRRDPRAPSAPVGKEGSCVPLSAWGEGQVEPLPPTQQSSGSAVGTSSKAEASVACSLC
Ribosomal protein S6 kinase alpha-5 (Homo sapiens), sequence (O75582 whole entry, looked up): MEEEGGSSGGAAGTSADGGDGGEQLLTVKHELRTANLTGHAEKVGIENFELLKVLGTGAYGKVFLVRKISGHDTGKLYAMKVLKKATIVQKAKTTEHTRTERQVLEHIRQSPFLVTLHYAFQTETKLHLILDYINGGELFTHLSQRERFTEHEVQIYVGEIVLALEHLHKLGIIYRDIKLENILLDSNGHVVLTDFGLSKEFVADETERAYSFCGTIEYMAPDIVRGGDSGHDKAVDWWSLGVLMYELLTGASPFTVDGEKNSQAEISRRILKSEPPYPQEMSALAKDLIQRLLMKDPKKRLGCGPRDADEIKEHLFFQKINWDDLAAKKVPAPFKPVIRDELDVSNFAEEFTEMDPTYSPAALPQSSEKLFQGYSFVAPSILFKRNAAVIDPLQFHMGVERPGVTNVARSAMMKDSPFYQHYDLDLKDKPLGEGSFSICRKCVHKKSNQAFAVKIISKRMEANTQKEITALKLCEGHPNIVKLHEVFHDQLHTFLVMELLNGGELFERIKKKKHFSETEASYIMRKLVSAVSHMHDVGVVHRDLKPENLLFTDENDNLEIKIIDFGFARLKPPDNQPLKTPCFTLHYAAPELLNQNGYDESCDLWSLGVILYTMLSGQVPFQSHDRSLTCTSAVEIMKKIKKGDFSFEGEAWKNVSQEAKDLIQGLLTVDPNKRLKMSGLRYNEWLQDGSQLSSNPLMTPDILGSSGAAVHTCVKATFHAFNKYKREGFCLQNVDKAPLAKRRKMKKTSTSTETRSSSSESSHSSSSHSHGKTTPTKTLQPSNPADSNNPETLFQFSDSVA
Melanocortin receptor 3 (Homo sapiens), sequence (P41968 whole entry): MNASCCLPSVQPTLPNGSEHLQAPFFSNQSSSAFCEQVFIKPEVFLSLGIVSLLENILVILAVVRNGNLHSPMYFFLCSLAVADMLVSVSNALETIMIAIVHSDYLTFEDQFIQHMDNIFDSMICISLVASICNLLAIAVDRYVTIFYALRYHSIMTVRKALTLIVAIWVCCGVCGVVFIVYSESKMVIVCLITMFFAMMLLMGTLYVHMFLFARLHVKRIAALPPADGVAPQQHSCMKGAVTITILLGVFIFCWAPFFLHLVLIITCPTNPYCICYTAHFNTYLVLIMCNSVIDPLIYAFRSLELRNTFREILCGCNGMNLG
Serine/threonine-protein kinase SIK2 (Homo sapiens), sequence (Q9H0K1 whole entry, looked up): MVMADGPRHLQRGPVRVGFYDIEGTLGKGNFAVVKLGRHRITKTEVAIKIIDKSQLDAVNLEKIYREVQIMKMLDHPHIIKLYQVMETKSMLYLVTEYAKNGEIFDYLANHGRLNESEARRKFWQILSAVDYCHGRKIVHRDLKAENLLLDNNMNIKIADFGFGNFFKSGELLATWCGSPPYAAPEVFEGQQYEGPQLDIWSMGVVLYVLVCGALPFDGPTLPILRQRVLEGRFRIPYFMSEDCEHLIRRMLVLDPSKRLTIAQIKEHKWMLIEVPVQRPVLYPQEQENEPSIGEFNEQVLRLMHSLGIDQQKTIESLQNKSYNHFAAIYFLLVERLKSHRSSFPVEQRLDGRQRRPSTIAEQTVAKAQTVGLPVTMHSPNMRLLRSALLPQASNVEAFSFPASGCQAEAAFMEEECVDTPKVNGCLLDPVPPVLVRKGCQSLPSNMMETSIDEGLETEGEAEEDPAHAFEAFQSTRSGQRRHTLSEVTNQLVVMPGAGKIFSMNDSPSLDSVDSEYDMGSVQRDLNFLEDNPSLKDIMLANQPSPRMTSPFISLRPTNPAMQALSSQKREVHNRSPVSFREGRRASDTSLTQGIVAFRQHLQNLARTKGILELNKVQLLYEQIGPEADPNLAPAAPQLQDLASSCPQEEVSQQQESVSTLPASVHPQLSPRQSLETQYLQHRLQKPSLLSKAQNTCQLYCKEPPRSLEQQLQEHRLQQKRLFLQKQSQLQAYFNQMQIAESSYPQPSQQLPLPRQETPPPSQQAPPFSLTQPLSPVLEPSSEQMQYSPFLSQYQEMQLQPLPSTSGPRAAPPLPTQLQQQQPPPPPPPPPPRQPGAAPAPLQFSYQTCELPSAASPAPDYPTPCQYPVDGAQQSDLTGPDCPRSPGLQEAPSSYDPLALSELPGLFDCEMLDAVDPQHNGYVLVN
Mitogen-activated protein kinase kinase kinase 8 (Homo sapiens), sequence (P41279 whole entry): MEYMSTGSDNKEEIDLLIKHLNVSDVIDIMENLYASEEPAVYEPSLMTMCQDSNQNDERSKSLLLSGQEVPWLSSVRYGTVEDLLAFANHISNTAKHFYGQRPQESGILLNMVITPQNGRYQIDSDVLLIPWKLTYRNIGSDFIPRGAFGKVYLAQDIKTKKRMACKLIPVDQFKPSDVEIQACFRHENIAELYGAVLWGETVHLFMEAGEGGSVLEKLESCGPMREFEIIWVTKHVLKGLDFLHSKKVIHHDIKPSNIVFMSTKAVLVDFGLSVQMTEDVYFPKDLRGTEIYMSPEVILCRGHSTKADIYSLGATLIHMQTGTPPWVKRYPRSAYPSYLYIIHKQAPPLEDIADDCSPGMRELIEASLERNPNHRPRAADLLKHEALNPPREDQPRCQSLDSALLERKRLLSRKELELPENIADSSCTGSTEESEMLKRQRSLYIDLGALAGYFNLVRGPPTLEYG

CN(C)C(=O)Cn1cc(-c2nc(C3(c4ccc(-c5cnc(N)nc5)cc4)CC3)no2)cn1 [BI 0153]
inactive: [1] 67%

CN(C)C(=O)Cn1cc(-c2nc([C@@](C)(c3ccc(-c4cnc(N)nc4)cc3)C3CC3)no2)cn1 [BI 665915]
inactive: [2] 102% | [3] 108% | [4] 94% | [5] 94% | [6] 100% | [7] 85% | [8] 90% | [9] 95% | [10] 98% | [11] 95% | [12] 100% | [13] 103% | [14] 93.5% | [15] 93% | [16] 104% | [17] 99.5% | [18] 97.5%
